Test results taken from US8535661B2, “Enzymatically active compositions for suppressing sulfide generation and methods of use thereof” (LCP Tech Holdings LLC, priority 2007, dated 2013).

Legend:
[1] = test system: Sulfide-Producing Bacteria; conditions: reported biocide treatment levels; cited from earlier work
yeast and mold = test: Mold and yeast counts in treated contaminated metalworking fluid samples; type: cell-based
Method: (§1) A used metalworking fluid from a Midwest automotive plant and a soluble oil having a high sulfate content were used to prepare synthetic effluent by combining about 200 ml of the oil with about four gallons (about 15 L) of water and one gallon (about 3.84 L) of the contaminated metal working fluid. The mixture was allowed to stand for about ten days and smelled of hydrogen sulfide by the end of this period. The mixture was then stirred and 15 samples (about 500 mL each) were removed and placed in separate containers. The containers were allowed to stand, open to the air, for about 4 additional days, after which time the aerobic bacterial count in each of the sample was measured using Biosan BF test strips. All of the samples contained >10′ bacteria/mL and smelled of hydrogen sulfide, indicating the presence of anaerobic bacteria, as well. The 15 samples, at neutral pH, were then individually treated with different biocides and combinations of biocides with the enzymatic composition of Example 1. The bacterial and yeast/mold counts in each sample were monitored over about 14 days.

bacteria = test: Bacterial counts in treated contaminated metalworking fluid samples; type: cell-based
Method: as §1

SRB = test: Hydrogen sulfide from containers with SRB-contaminated sugar beet pond water
Method: A leachate from a sugar beet pond contaminated with SRB was fed into three 5-gallon containers filled with a nutrient source, sulfate and water. The contents in each container consisted of about 500 mL of SRB-contaminated sugar beet pond water, about 3.84 liters of vinegar (about 5% acetic acid content) about 450 mL of 0.5 N sulfuric acid, about 150 g of sodium hydroxide to adjust the pH to about 6.8, the normal pH and enough additional water to achieve a total volume of about 5 gallons. Nitrogen gas was continuously passed through the each container to eliminate any oxygen and to provide a gas flow in which to measure hydrogen sulfide generated in each container. About 500 ppm of a 10% solution of sodium hypochlorite was added to one of the reactors. An identical amount hypochlorite was added to another reactor, along with about 500 ppm of the composition of Example 1. About 500 ppm of the composition of Example 1 was added to the third container (without hypochlorite). The hydrogen sulfide level in the nitrogen gas stream from each container was monitored over time. The container treated only with the composition of the invention went to zero hydrogen sulfide production over about seven days, and stayed at zero for about four days thereafter. The container treated with bleach alone went to zero within six days and remained at zero for less than one day. […] The hydrogen sulfide concentration from the container treated with both hypochlorite and the composition of Example 1 fell to zero over about 13 days and remained at zero for greater than eight days. From the data in FIG. 4, it is clear that the enzymatically active compositions of the invention can work cooperatively with inexpensive biocidal compositions such as hypochlorite to effectively extend the useful lifetime of inexpensive biocides such as hypochlorite.

Desulfovibrio vulgaris = test: Sulfide concentration in nitrogen stream from Desulfovibrio vulgaris cultures; type: cell-based; conditions: about 10 mM sodium nitrate; decrease after about 9 hours
Method: Laboratory studies were conducted by growing cultures of Desulfovibrio vulgaris, available from NCIMB Ltd, Aberdeen, Scotland, UK as NCIMB 8303 (see Postgate, J. R., The Sulfate-Reducing Bacteria, 2nd Ed., Cambridge University Press, Cambridge; 1984) in 100 mL aliquots of mCSB containing 12 mM sodium sulfate, 30 mM sodium lactate and 10 mM sodium nitrate in one-liter serum bottles sealed with butyl rubber stoppers, which were flushed with nitrogen and autoclaved at about 120° C. prior to use. A 2% inoculum of freshly prepared D. vulgaris culture was added to the medium in each bottle and incubated at about 30° C. Each culture was grown to mid-log phase to achieve a sulfide concentration of about 12.2±1.4 mM before adding about 25 mL of an aqueous 100 ppm solution of the enzymic composition of Example 1 to each culture. Each culture was then sparged with 99.99% pure nitrogen gas and the pH was adjusted to 6.4 using a dilute solution of nitric acid. The sulfide concentration in the nitrogen stream from each culture bottle was monitored as a function of time.

[2] = about 500 ppm of each agent (hypochlorite as 10% solution), pH about 6.8

Row | Compound | Minimum Concentration that prevents sulfide production [1] [mg/L] | Mold and Yeast Counts (yeast and mold; Day 0) | Mold and Yeast Counts (yeast and mold; Day 1) | Mold and Yeast Counts (yeast and mold; Day 3) | Mold and Yeast Counts (yeast and mold; Day 4) | Mold and Yeast Counts (yeast and mold; Day 6) | Mold and Yeast Counts (yeast and mold; Day 8) | Mold and Yeast Counts (yeast and mold; Day 10) | Mold and Yeast Counts (yeast and mold; Day 12) | Mold and Yeast Counts (yeast and mold; Day 14) | Bacterial Counts (bacteria; Day 0) | Bacterial Counts (bacteria; Day 1) [bacteria/mL] | Bacterial Counts (bacteria; Day 3) [bacteria/mL] | Bacterial Counts (bacteria; Day 4) [bacteria/mL] | Bacterial Counts (bacteria; Day 6) [bacteria/mL] | Bacterial Counts (bacteria; Day 8) | Bacterial Counts (bacteria; Day 10) | Bacterial Counts (bacteria; Day 12) | Bacterial Counts (bacteria; Day 14) | also measured
1 | O=CCCCC=O [Glutaraldehyde] | 500 |  |  |  |  |  |  |  |  |  |  |  |  |  |  |  |  |  |  | 
2 | [O]=[Mo](=[O])([O-])[O-] [Molybdate] | 120 |  |  |  |  |  |  |  |  |  |  |  |  |  |  |  |  |  |  | 
3 | O=NO [Nitrite] | 230 |  |  |  |  |  |  |  |  |  |  |  |  |  |  |  |  |  |  | 
4 | OCCN1CN(CCO)CN(CCO)C1 [Sample 3, hexahydro-1,3,5-tris(2-hydroxyethyl)-s-triazine] |  | 10^4 | 0 | 0 | 0 | 10 | 10 | 10^3 | 10^4 | 10^3 | >10^7 bacteria/mL | <100 | <100 | 100 | 1000 | 10^4 bacteria/mL | >10^7 bacteria/mL | 10^6 bacteria/mL | >10^7 bacteria/mL | 
5 | OCCN1CN(CCO)CN(CCO)C1 [Sample 4, hexahydro-1,3,5-tris(2-hydroxyethyl)-s-triazine] |  | 10^3 | 0 | 0 | 0 | 0 | 100 | 10 | 100 | 100 | >10^7 bacteria/mL | <100 | 100 | 100 | 1000 | 10^5 bacteria/mL | >10^7 bacteria/mL | >10^7 bacteria/mL | >10^7 bacteria/mL | 
6 | CCCCNC(=O)OCC#CI [Sample 7, 3-iodo-2-propynyl butyl carbamate] |  | 10^3 | 0 | 0 | 0 | 0 | 100 | 10 | 100 | 10^3 | >10^7 bacteria/mL | <100 | <100 | 100 | 100 | 100 bacteria/mL | 1000 bacteria/mL | 10^4 bacteria/mL | 10^5 bacteria/mL | 
7 | CCCCNC(=O)OCC#CI [Sample 8, 3-iodo-2-propynyl butyl carbamate] |  | 10^4 | 0 | 0 | 0 | 100 | 10^3 | 10^3 | 10^3 | 10^3 | >10^7 bacteria/mL | <100 | <100 | 100 | 100 | 100 bacteria/mL | 10^4 bacteria/mL | 10^5 bacteria/mL | >10^7 bacteria/mL | 
8 | OCl [hypochlorite, sodium hypochlorite] |  |  |  |  |  |  |  |  |  |  |  |  |  |  |  |  |  |  |  | time hydrogen sulfide stayed at zero (SRB; [2]): less than one; time to zero hydrogen sulfide production (SRB; [2]): six; additional suppression of hydrogen sulfide production (SRB; after another identical dose of hypochlorite): less than one
9 | O=[N+]([O-])[O-].[Na+] [sodium nitrate] |  |  |  |  |  |  |  |  |  |  |  |  |  |  |  |  |  |  |  | extent of decrease in sulfide production relative to the decrease observed with the composition of Example 1 (Desulfovibrio vulgaris): 10-15%
10 | Benzalkonium chloride | 50 |  |  |  |  |  |  |  |  |  |  |  |  |  |  |  |  |  |  | 
11 | tetrakis(hydroxymethyl)phosphonium sulfate [Sample 13] |  | 10^3 | 0 | 0 | 0 | 0 | 100 | 10 | 100 | 10^3 | >10^7 bacteria/mL | <100 | <100 | 100 | 1000 | 1000 bacteria/mL | >10^5 bacteria/mL | 10^6 bacteria/mL | >10^7 bacteria/mL | 
12 | tetrakis(hydroxymethyl)phosphonium sulfate [Sample 14] |  | 10^4 | 0 | 0 | 0 | 100 | 10^3 | 10^3 | 10^3 | 10^3 | >10^7 bacteria/mL | <100 | 100 | 100 | 1000 | 10^5 bacteria/mL | >10^7 bacteria/mL | >10^7 bacteria/mL | >10^7 bacteria/mL | 
